Source: patent publication US20230356105A1, “TETRAAZADODECANE BASED CHELATING AGENTS FOR SEPARATION OF RARE EARTH ELEMENTS AND METHOD THEREFOR” (Ustav Organicke Chemie a Biochemie AV CR V.V.I., priority 2020, published 2023)

Legend:
[1] = Use of additives to improve separation of Nd/Dy mixture by precipitation with L5 (Example 18); assay type: physicochemical; conditions: 11 mM L5
Method: Stock solutions were pipetted into plastic 1×1 cm cuvettes to prepare reaction mixtures with concentrations as follows: • 1. […] 5 mM NdCl3 • 3. 5 mM DyCl3 • 4. 500 mM MOPS pH=7 • 5. the additive of interest, in a variable concentration; if possible, stock solutions were prepared from Na^+ salt forms of the compound; if not, the stock solutions were titrated by NaOH/HCl to pH=7 prior to addition (see Table 12 for additives and concentrations)
These aqueous reaction mixtures, each prepared to a total volume of 2.0 mL with the addition of water as necessary, were mixed by the use of a PTFE-coated stir bar on a magnetic stirrer. The cuvettes were sealed with transparent tape to prevent evaporation overnight. The reaction mixtures were stirred for 18 hours, at which point 500 μL aliquots of each reaction mixture were transferred into plastic 2 mL Eppendorf tubes and centrifuged. The supernatants were carefully pipetted out and transferred to a new set of tubes. The precipitate was dissolved by addition of 500 μL 1M HCl. The absolute concentration of Nd and Dy in each supernatant and precipitate was determined by ICP-OES.

[2] = Removal of additive from remaining solution after precipitation by ultrafiltration (Example 25); assay type: physicochemical; conditions: initial [additive] 30.4 mM

- Precipitate concentration [mM] Dy ([1]; additive 5 mM): 2.59 mM
- Precipitate concentration [mM] Nd ([1]; additive 5 mM): 4.32 mM
- Supernatant concentration [mM] Dy ([1]; additive 5 mM): 1.55 mM
- Supernatant concentration [mM] Nd ([1]; additive 5 mM): 0.10 mM
- Precipitate concentration [mM] Dy ([1]; additive 10 mM): 1.50 mM
- Precipitate concentration [mM] Nd ([1]; additive 10 mM): 4.03 mM
- Supernatant concentration [mM] Dy ([1]; additive 10 mM): 3.03 mM
- Supernatant concentration [mM] Nd ([1]; additive 10 mM): 0.19 mM
- Precipitate concentration [mM] Dy ([1]; additive 15 mM): 1.18 mM
- Precipitate concentration [mM] Nd ([1]; additive 15 mM): 4.33 mM
- Supernatant concentration [mM] Dy ([1]; additive 15 mM): 3.37 mM
- Supernatant concentration [mM] Nd ([1]; additive 15 mM): 0.33 mM
- Precipitate concentration [mM] Dy ([1]; additive 20 mM): 0.81 mM
- Precipitate concentration [mM] Nd ([1]; additive 20 mM): 3.78 mM
- Supernatant concentration [mM] Dy ([1]; additive 20 mM): 3.69 mM
- Supernatant concentration [mM] Nd ([1]; additive 20 mM): 0.60 mM
- % of initial [additive] in filtrate [2]: 3%
Structure (SMILES): CC(C)(O)C(=O)O [α-HIBA, alpha-hydroxyisobutyric acid]
